The subject of data set [1] is BV-2. Briefly: Antiinflammatory activity in LPS-stimulated mouse BV2 cells assessed as inhibition of NO production after 24 hrs by Griess method. The format is functional, cell-based. A general note: The Griess reaction detects nitrite, a stable product of nitric oxide.
The nature of data set [2]: Cytotoxicity against mouse BV2 cells assessed as cell viability at 40 uM after 24 hrs by MTT assay relative to control. It counts as cell-based, BV-2. Conditions: read-out: Activity.
The nature of data set [3]: Antiinflammatory activity in LPS-stimulated mouse BV2 cells assessed as inhibition of NO production at 40 uM after 24 hrs by Griess method relative to control. It counts as functional. Conditions: BV-2, 24 h.
The test system of data set [4] is BV-2. Briefly: Antiinflammatory activity in mouse BV2 cells assessed as inhibition of LPS-stimulated IL-1beta mRNA expression preincubated for 30 mins followed by LPS-stimulation by RT-PCR analysis. It counts as functional, cell-based.
Data set [5] relates to Mus musculus. Briefly: Neuroprotective activity in ip dosed mouse middle cerebral artery occlusion model assessed as reduction in infarction volume administered 1 hr prior to onset of ischemia measured after 24 hrs by TTC staining-based microscopic analysis. It counts as functional, organism-based.
Data set [6] relates to BV-2. The data set is described as follows: Antiinflammatory activity in mouse BV2 cells assessed as inhibition of LPS-stimulated COX-2 protein expression at 40 uM preincubated for 30 mins followed by LPS-stimulation measured after 16 hrs by Western blotting analysis. The format is functional, cell-based. For orientation: Immunoblotting shows a protein as a band on a membrane.

For data set [7], the system named is BV-2. Briefly: Antiinflammatory activity in mouse BV2 cells assessed as inhibition of LPS-stimulated COX-2 mRNA expression preincubated for 30 mins followed by LPS-stimulation by RT-PCR analysis. The format is functional, cell-based.
The test system of data set [8] is Mus musculus. Briefly: Neuroprotective activity in mouse middle cerebral artery occlusion model assessed as reduction in activated microglial cells in medial periphery of cortical infarct area at 30 mg/kg, ip administered 1 hr prior to onset of ischemia measured after 24 hrs by Iba-1 staining-based microscopic analysis. The format is functional, organism-based. On the set-up: dose 30 mg/kg.

The test system of data set [9] is BV-2. The data set is described as follows: Antiinflammatory activity in mouse BV2 cells assessed as inhibition of LPS-stimulated TNF-alpha mRNA expression preincubated for 30 mins followed by LPS-stimulation by RT-PCR analysis. The format is functional, cell-based.
In data set [10] the test system is BV-2. Briefly: Antiinflammatory activity in mouse BV2 cells assessed as inhibition of LPS-stimulated iNOS mRNA expression preincubated for 30 mins followed by LPS-stimulation by RT-PCR analysis. It counts as functional, cell-based.
The subject of data set [11] is BV-2. The data set is described as follows: Antiinflammatory activity in mouse BV2 cells assessed as inhibition of LPS-stimulated iNOS protein expression at 40 uM preincubated for 30 mins followed by LPS-stimulation measured after 16 hrs by Western blotting analysis. It counts as functional, cell-based.

Among the data in ChEMBL document CHEMBL3112432, “Synthesis of 5α-cholestan-6-one derivatives and their inhibitory activities of NO production in activated microglia: discovery of a novel neuroinflammation inhibitor” (Bioorg Med Chem Lett, 2014) are inhibition, viability and Activity values, retold here.

SMILES strings stand for the structures. Calls of active or inactive are those of the source. The calls are words filed in the database; no cut-off is given here.

`COC(=O)CC[C@@H](C)[C@H]1CC[C@H]2[C@@H]3[C@H](O)C(=O)[C@H]4C[C@@H](F)CC[C@]4(C)[C@H]3CC[C@]12C`: in the data set on BV-2 [1], the inhibition entry is “Dose-dependent effect”. Besides, the viability at 24 h, 40 µM in [2] amounted to 92.4%. For the same molecule, the inhibition at 40 µM in data set [3] was 64.2%.

Take `COC(=O)CC[C@@H](C)[C@H]1CC[C@H]2[C@@H]3[C@H](F)C(=O)[C@H]4C[C@H](O)[C@@H](F)C[C@]4(C)[C@H]3CC[C@]12C`: the inhibition entry with BV-2 [1] is “Dose-dependent effect”. Further, the viability at 24 h, 40 µM in data set [2] stood at 96.2%. Also, in data set [3], the inhibition at 40 µM turned out to be 70%.

As for `COC(=O)CC[C@@H](C)[C@H]1CC[C@H]2[C@@H]3[C@H](O)C(=O)[C@H]4C[C@@H](O)CC[C@]4(C)[C@H]3CC[C@]12C`, in the data set with BV-2 [1], the inhibition result was “Dose-dependent effect”. For the same molecule, the viability at 24 h, 40 µM in data set [2] was 96.3%. Moreover, in [3], the inhibition at 40 µM stood at 71.1%.

On to `COC(=O)CC[C@@H](C)[C@H]1CC[C@H]2[C@@H]3[C@H](F)C(=O)[C@H]4C[C@@H](O)CC[C@]4(C)[C@H]3CC[C@]12C`, for which the viability at 24 h, 40 µM in data set [2] turned out to be 23.1%. Moreover, in data set [3], the inhibition at 40 µM amounted to 43.9%.

Regarding `C=C[C@@H](C)[C@H]1CC[C@H]2[C@@H]3[C@H](O)C(=O)[C@H]4C[C@H](O)CC[C@]4(C)[C@H]3CC[C@]12C`, the viability at 24 h, 40 µM in [2] was determined as 76.6%. Further, in [3], the inhibition at 40 µM worked out at 69.6%.

With `COC(=O)CC[C@@H](C)[C@H]1CC[C@H]2[C@@H]3[C@H](F)C(=O)[C@H]4C[C@@H](F)CC[C@]4(C)[C@H]3CC[C@]12C`, the viability at 24 h, 40 µM in [2] was 92.2%. The inhibition at 40 µM in data set [3] was 39.1%.

Regarding `C[C@]12CC[C@H](O)CC1=CC[C@@H]1[C@@H]2CC[C@]2(C)C(=O)CC[C@@H]12` [PRASTERONE], the viability at 24 h, 40 µM in data set [2] is 99.1%. For the same molecule, in [3], the inhibition at 40 µM is 55.3%.

Consider `COC(=O)CC[C@@H](C)[C@H]1CC[C@H]2[C@@H]3CC(=O)[C@H]4C[C@@H]5O[C@@H]5C[C@]4(C)[C@H]3CC[C@]12C`, for which, in [2], the viability at 24 h, 40 µM is 99.5%. In data set [3], the inhibition at 40 µM was determined as 48.6%.

`C=C[C@@H](C)[C@H]1CC[C@H]2[C@@H]3[C@H](O)C(=O)[C@H]4C[C@@H](F)CC[C@]4(C)[C@H]3CC[C@]12C`: the viability at 24 h, 40 µM in data set [2] was found to be 87%. The inhibition at 40 µM in [3] worked out at 43.2%.

With `COC(=O)CC[C@@H](C)[C@H]1CC[C@H]2[C@@H]3[C@H](F)C(=O)[C@H]4C[C@H](O)CC[C@]4(C)[C@H]3CC[C@]12C`, the viability at 24 h, 40 µM in [2] is 73.7%. Besides, in data set [3], the inhibition at 40 µM is 47.2%.

In the case of `C[C@H]([C@H](O)CO)[C@H]1CC[C@H]2[C@@H]3CC(=O)[C@H]4C[C@H](O)[C@H](O)C[C@]4(C)[C@H]3CC[C@]12C`, in data set [2], the viability at 24 h, 40 µM was 94%. The inhibition at 40 µM in data set [3] came to 22.6%.

Regarding `COC(=O)CC[C@@H](C)[C@H]1CC[C@H]2[C@@H]3[C@H](F)C(=O)[C@H]4C[C@H](O)[C@@H](O)C[C@]4(C)[C@H]3CC[C@]12C`, the viability at 24 h, 40 µM in [2] came out at 50.8%. The inhibition at 40 µM in data set [3] is 68.1%.

On to `C[C@H]([C@H](O)CO)[C@H]1CC[C@H]2[C@@H]3CC(=O)[C@H]4C[C@H](O)CC[C@]4(C)[C@H]3CC[C@]12C`, for which the inhibition entry with BV-2 [1] is “Dose-dependent effect”. Also, the viability at 24 h, 40 µM in data set [2] was found to be 95.9%. The inhibition at 40 µM in data set [3] is 60.4%.

Take `COC(=O)CC[C@@H](C)[C@H]1CC[C@H]2[C@@H]3[C@H](O)C(=O)[C@H]4C[C@H](O)CC[C@]4(C)[C@H]3CC[C@]12C`: the inhibition entry in the data set on BV-2 [4], in the data set with BV-2 [1], in the data set on BV-2 [7], with BV-2 [9] and in the data set with BV-2 [10] was “Dose-dependent effect” each time. In the data set on Mus musculus [5], the Activity entry is “Dose-dependent effect”. Moreover, the viability at 24 h, 40 µM in data set [2] was 95.4%. The inhibition result with BV-2 [6] and in the data set on BV-2 [11] was “Active” each time. Besides, the result in the data set with Mus musculus [8] was Active. In addition, in data set [3], the inhibition at 40 µM was 73.6%.

As to `C[C@H]([C@H](O)CO)[C@H]1CC[C@H]2[C@@H]3[C@H](F)C(=O)[C@H]4C[C@H](O)CC[C@]4(C)[C@H]3CC[C@]12C`, in the data set with BV-2 [1], the inhibition result was “Dose-dependent effect”. Also, in data set [2], the viability at 24 h, 40 µM turned out to be 95.1%. In addition, in [3], the inhibition at 40 µM worked out at 68.1%.

With `C=C[C@@H](C)[C@H]1CC[C@H]2[C@@H]3[C@H](F)C(=O)[C@H]4C[C@H](O)[C@@H](F)C[C@]4(C)[C@H]3CC[C@]12C`, the viability at 24 h, 40 µM in data set [2] was found to be 86.8%. For the same molecule, the inhibition at 40 µM in data set [3] was 63.8%.

Take `C=C[C@@H](C)[C@H]1CC[C@H]2[C@@H]3CC(=O)[C@H]4C[C@H](O)[C@H](O)C[C@]4(C)[C@H]3CC[C@]12C`: in data set [2], the viability at 24 h, 40 µM is 48.2%. Besides, in data set [3], the inhibition at 40 µM came out at 65.7%.

For `COC(=O)CC[C@@H](C)[C@H]1CC[C@H]2[C@@H]3CC(=O)[C@H]4C[C@@H](F)CC[C@]4(C)[C@H]3CC[C@]12C`, in data set [2], the viability at 24 h, 40 µM stood at 84.1%. The inhibition at 40 µM in [3] is 43.5%.

As to `COC(=O)CC[C@@H](C)[C@H]1CC[C@H]2[C@@H]3CC(=O)[C@H]4C[C@H](O)[C@@H](Br)C[C@]4(C)[C@H]3CC[C@]12C`, the viability at 24 h, 40 µM in [2] came out at 91.4%. Further, the inhibition at 40 µM in [3] was 42.7%.

For `COC(=O)CC[C@@H](C)[C@H]1CC[C@H]2[C@@H]3CC(=O)[C@H]4C[C@@H](Cl)CC[C@]4(C)[C@H]3CC[C@]12C`, in data set [2], the viability at 24 h, 40 µM worked out at 79%. In addition, in data set [3], the inhibition at 40 µM was found to be 35.9%.

Turning to `COC(=O)CC[C@@H](C)[C@H]1CC[C@H]2[C@@H]3CC(=O)[C@H]4C[C@H](O)[C@H](O)C[C@]4(C)[C@H]3CC[C@]12C`, the viability at 24 h, 40 µM in data set [2] was 81.1%. For the same molecule, the inhibition at 40 µM in [3] stood at 74.1%.

For `C=C[C@@H](C)[C@H]1CC[C@H]2[C@@H]3[C@H](F)C(=O)[C@H]4C[C@H](O)CC[C@]4(C)[C@H]3CC[C@]12C`, in [2], the viability at 24 h, 40 µM is 76.6%. The inhibition at 40 µM in data set [3] was found to be 44.5%.

A word on the inhibition: it is the change of the read-out against control, counted positive when it falls.
